These results are taken from publication PMC11129196 (Journal of Medicinal Chemistry, 2024).

The test system of one series is PDE-3. To be noted: cited from earlier work.
Another series concerns reconstituted sarcomeres. Description: sarcomere component swap experiment. The class given is biochemical, bovine, rabbit. The settings on record: four myosin S1/thin filament combinations; 1 and 2 at 40 μM.
Series [1] concerns adult rat ventricular myocytes. Description: cardiomyocyte calcium transient experiments. To be noted: 10 μM, Fura dye. The class given is cell-based.
The target of a further series is fast skeletal myofibrils (Oryctolagus cuniculus, UniProt P02586+P02643). Briefly: fast skeletal myofibril ATPase assay. The class given is biochemical, rabbit.
fast skeletal myofibrils, sequence (P02586 whole entry): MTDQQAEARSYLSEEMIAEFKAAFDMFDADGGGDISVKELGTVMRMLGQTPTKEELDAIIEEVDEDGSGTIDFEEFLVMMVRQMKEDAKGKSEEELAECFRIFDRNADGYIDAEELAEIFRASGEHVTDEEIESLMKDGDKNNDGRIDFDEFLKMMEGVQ
fast skeletal myofibrils, sequence (P02643 whole entry): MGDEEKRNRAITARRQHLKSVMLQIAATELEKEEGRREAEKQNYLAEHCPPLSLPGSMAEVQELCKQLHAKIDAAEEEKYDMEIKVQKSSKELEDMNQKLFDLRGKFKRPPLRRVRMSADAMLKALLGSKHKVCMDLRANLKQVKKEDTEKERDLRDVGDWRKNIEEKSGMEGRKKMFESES
fast skeletal myofibrils, sequence (P02641 whole entry partner): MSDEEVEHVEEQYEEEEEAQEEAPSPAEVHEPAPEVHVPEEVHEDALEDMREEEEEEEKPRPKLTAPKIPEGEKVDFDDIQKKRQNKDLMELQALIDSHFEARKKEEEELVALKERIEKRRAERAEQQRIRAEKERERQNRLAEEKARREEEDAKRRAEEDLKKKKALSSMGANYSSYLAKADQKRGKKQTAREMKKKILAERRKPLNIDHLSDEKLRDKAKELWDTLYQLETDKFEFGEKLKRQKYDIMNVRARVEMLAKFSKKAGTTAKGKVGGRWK
For series [2], the system named is adult rat ventricular myocytes. Briefly: rat cardiomyocyte contractility assay. The class given is cell-based. To be noted: 10 μM, 1 Hz, 37 °C, vs untreated cells.
The next series has as its target smooth muscle myosin (Gallus gallus, UniProt P10587). Description: smooth muscle myosin ATPase assay. The class given is biochemical, chicken.
Another series deals with slow skeletal myofibrils (Bos taurus, UniProt P63315). Briefly: slow skeletal myofibril ATPase assay. The class given is biochemical, bovine.
The nature of series [3]: solubility in the PDE-3 buffer solution. Type of series: physicochemical.
The next series has as its target phosphodiesterase 3a (Homo sapiens, UniProt Q14432). Briefly: PDE-3 inhibition assay. Type of series: biochemical.
A short description of the next series: solubility assessment. Type of series: physicochemical. The settings on record: monopotassium phosphate JP2 buffer, pH 6.8.
The nature of series [4]: rat pharmacokinetic assessment, IV. The class given is in vivo. To be noted: dosed IV in rats.

≈ marks a conversion by molar mass, not a printed value. Entries after “also recorded” stand apart in the source; their conditions may differ.

smooth muscle myosin, sequence (P10587 whole entry): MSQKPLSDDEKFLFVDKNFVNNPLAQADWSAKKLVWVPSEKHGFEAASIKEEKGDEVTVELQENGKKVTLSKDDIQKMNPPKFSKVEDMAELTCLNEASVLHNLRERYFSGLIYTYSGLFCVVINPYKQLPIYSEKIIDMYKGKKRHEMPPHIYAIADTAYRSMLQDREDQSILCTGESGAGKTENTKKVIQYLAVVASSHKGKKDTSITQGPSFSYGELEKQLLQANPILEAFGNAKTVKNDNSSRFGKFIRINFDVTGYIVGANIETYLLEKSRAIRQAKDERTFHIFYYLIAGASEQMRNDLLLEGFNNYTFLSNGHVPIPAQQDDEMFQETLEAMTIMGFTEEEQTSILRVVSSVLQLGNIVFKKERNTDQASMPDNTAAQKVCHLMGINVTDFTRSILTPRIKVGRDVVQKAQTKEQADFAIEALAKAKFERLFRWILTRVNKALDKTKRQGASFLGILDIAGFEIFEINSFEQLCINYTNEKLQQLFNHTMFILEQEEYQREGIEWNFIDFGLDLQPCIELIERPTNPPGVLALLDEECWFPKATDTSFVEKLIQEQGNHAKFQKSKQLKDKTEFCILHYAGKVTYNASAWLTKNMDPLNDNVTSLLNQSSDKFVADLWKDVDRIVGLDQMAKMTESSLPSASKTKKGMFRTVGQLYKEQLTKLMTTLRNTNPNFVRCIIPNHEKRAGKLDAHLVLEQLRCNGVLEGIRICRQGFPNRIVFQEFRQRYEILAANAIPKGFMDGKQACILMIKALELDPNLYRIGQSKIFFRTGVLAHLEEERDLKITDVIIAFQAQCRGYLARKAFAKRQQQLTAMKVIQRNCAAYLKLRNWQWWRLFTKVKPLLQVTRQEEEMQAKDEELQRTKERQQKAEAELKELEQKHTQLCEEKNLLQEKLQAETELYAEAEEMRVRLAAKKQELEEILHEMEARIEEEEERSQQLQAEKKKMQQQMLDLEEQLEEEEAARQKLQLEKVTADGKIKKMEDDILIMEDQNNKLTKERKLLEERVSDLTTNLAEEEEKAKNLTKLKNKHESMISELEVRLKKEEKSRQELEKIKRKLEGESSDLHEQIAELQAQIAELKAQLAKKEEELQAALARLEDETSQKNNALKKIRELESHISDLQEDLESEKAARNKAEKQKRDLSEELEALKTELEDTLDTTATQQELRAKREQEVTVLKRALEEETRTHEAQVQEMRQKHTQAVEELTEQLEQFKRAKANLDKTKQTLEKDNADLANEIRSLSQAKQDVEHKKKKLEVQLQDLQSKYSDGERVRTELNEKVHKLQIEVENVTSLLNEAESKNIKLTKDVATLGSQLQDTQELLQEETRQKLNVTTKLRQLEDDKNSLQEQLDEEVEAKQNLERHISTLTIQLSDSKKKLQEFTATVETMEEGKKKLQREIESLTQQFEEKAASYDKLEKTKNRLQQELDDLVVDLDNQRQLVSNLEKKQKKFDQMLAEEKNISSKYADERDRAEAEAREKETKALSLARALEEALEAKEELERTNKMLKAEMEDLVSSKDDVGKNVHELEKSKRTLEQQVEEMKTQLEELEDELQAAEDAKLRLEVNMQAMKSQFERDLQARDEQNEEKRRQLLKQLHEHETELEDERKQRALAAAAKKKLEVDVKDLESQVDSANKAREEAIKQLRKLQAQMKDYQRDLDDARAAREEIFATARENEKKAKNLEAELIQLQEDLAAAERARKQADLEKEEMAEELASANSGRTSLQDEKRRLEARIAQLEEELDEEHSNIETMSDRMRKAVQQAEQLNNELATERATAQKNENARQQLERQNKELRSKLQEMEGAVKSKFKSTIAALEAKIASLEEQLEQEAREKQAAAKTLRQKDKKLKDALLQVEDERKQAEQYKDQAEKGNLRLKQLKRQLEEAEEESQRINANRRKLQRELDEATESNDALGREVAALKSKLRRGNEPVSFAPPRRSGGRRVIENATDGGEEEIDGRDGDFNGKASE
smooth muscle myosin, sequence (P02607 whole entry partner): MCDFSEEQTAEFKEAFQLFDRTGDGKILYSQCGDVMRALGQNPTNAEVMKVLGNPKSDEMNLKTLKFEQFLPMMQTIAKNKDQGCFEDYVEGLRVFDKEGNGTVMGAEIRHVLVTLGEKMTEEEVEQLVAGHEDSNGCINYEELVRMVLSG
smooth muscle myosin, sequence (P02612 whole entry partner): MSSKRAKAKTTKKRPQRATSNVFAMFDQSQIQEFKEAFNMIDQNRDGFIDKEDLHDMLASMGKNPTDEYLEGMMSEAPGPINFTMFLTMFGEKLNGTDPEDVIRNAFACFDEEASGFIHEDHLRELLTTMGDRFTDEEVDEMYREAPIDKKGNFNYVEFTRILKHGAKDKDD
phosphodiesterase 3a, sequence (Q14432 whole entry): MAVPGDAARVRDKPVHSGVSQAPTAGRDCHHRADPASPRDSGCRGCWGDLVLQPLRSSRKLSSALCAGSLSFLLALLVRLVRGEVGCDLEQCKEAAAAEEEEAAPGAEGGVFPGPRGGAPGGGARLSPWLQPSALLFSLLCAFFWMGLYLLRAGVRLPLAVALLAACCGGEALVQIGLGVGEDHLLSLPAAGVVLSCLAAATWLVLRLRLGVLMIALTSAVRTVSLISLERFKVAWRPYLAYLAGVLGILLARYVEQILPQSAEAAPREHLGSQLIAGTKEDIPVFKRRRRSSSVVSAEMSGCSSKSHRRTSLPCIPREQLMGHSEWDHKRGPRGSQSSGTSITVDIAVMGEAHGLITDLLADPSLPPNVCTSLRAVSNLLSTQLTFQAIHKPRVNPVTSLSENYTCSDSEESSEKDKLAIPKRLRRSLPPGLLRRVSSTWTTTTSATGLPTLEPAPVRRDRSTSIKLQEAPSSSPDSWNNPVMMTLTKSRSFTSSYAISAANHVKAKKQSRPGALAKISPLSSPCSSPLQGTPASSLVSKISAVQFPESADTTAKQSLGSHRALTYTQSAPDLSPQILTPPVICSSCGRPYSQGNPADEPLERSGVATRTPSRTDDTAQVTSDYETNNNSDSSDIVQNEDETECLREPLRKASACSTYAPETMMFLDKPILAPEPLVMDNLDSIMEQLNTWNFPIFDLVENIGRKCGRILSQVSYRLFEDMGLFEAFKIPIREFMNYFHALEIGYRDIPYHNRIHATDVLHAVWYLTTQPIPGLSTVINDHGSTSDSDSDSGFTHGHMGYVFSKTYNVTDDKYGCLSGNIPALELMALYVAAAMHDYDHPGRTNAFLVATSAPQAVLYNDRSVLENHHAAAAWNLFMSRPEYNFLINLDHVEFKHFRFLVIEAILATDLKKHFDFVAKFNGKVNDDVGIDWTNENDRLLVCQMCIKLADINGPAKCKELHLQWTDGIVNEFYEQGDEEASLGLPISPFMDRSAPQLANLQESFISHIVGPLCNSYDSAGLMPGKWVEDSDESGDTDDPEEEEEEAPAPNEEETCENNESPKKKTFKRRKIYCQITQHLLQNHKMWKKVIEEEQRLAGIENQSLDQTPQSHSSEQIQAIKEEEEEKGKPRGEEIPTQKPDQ

Take `C[C@@H]1CC(=O)NN=C1c1ccc(NN=C(C#N)C#N)cc1` [Levosimendan]: in the series with PDE-3, the “PDE-3 inhibition in words” value is reported as “single digit nanomolar PDE-3 inhibition”.

In the case of `O=c1[nH]c2ccc(S(=O)(=O)Nc3ccc(-c4ccccc4)cc3)cc2[nH]1` [compound 1], the “activation of reconstituted sarcomeres in words” value with reconstituted sarcomeres is “Only the reconstituted sarcomeres that contain the cardiac thin filament showed activation”.

For the compound `O=c1[nH]c(=O)c2cc(S(=O)(=O)Nc3ccc(N4CCCCCC4)cc3)ccc2[nH]1` [compound 2], in [1], the “intracellular calcium concentrations in words” value is on record as “without changing intracellular calcium concentrations”. For the same compound, the “activation of reconstituted sarcomeres in words” value in the series on reconstituted sarcomeres is listed as “Only the reconstituted sarcomeres that contain the cardiac thin filament showed activation”. Further, the “fast skeletal myofibril activity in words” value on fast skeletal myofibrils was “inactive; also recorded: did not activate”. Moreover, the “myocyte fractional shortening in words” value in series [2] is listed as “significantly increased myocyte fractional shortening”. The “smooth muscle myosin activity in words” value on smooth muscle myosin is “inactive; also recorded: did not activate”.

`O=c1[nH]c(=O)c2cc(S(=O)(=O)Nc3ccc(-c4ccccc4)cc3)ccc2[nH]1` [compound 3]: the “slow skeletal myofibril AC40” value on slow skeletal myofibrils is <0.1 µM. In addition, on fast skeletal myofibrils, the “fast skeletal myofibril activity in words” value is “did not activate”. For the same compound, the “smooth muscle myosin activity in words” value on smooth muscle myosin is “did not activate”.

The compound `Cn1c(=O)[nH]c(=O)c2cc(S(=O)(=O)Nc3ccc(-c4ccccc4)cc3)ccc21` [compound 5] had a solubility in series [3] of 1.2 µM (≈ 0.489 µg/mL).

With `C[C@@H]1C[C@@H](C)CN(c2ccc(NS(=O)(=O)c3ccc4c(c3)c(=O)[nH]c(=O)n4C)cn2)C1` [compound 13, N-(6-((3R,5R)-3,5-Dimethylpiperidin-1-yl)pyridin-3-yl)-1-methyl-2,4-dioxo-1,2,3,4-tetrahydroquinazoline-6-sulfonamide], half-maximal inhibition against phosphodiesterase 3a (IC50) required 7 µM.

In the series “solubility assessment”, `CNc1cc2nc(C)[nH]c(=O)c2cc1S(=O)(=O)Nc1ccc(N2C[C@H](C)C[C@@H](C)C2)nc1` [compound 17, N-(6-((3R,5R)-3,5-Dimethylpiperidin-1-yl)pyridin-3-yl)-2-methyl-7-(methylamino)-4-oxo-3,4-dihydroquinazoline-6-sulfonamide] returned a solubility at 12 h of 6.7 µM (≈ 3.06 µg/mL). Moreover, the “clearance relative to hepatic blood flow” value in series [4] is < 25 % of hepatic blood flow (Qh).

Usually solubility stands for the dissolved amount per volume that the medium holds. Higher therefore signals a readily soluble substance. Usually IC50 stands for the concentration that inhibits the measured activity by half. A higher IC50 goes with lower potency.
